Here are results for seven compounds from patent US20220048888A1, “PYRIMIDINYL-HETEROARYLOXY-NAPHTHYL COMPOUNDS AND METHODS OF USE” (Genentech, Inc., priority 2018, published 2022).

One data set deals with T1, kinase domain of IRE1 alpha (Homo sapiens, UniProt O75460, D688N).
T1 construct: (KR, AA G547-L977, D688N); made in house; host or cells: Sf9 insect cells
T1 sequence (O75460 547-977 D688N): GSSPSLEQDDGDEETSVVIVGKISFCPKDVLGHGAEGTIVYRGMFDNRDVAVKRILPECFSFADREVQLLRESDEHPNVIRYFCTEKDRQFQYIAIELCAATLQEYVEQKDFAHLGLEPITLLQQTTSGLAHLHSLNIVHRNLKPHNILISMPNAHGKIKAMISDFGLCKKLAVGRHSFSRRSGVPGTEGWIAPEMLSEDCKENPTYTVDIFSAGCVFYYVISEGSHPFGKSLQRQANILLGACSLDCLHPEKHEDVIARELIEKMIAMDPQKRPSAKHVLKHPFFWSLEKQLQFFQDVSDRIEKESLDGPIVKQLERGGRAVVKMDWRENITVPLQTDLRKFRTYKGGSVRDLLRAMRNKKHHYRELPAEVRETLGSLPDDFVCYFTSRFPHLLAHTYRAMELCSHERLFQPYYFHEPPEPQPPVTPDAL
As to the kind of experiment: IRE1α TR-FRET competition binding assay. The settings on record: Kinase Tracer 236 0.1 μM; kinase dead IRE1 alpha KR construct. The procedure:
To determine the affinity of compound binding to the kinase domain of IRE1 alpha, a Time Resolved Fluorescence Resonance Energy Transfer (TR-FRET) competition assay was used. A His-tagged IRE1 alpha kinase dead construct containing the kinase and RNase domains (KR, AA G547-L977, D688N) was expressed in Sf9 insect cells. The purified protein (final concentration 0.006 OA micromolar) was pre-incubated with anti-His Europium labeled antibody (Life Technologies PV5596, final concentration 0.002 OA micromolar) for one hour at 4° C. in 1×TR-FRET Assay Buffer (50 mM HEPES, pH 7.5, 10 mM MgCl2, 0.083 mM Brij 35, 1 mM DTT, and 0.1% bovine gamma globulin) prior to addition to test compounds. A fluorescent labeled probe based on an ATP competitive inhibitor (Kinase Tracer 236, Life Technologies PV5592) is added to a final concentration of 0.1 μM (micromolar). Reactions were carried out for one hour at room temperature in a final volume of 20 μL (microliter) in 384 well white ProxiPlates (Perkin Elmer 6008289). Binding of the tracer to the IRE1 protein alpha was detected in an Envision instrument (PerkinElmer) equipped with a TRF laser option and a LANCE/Delfia Dual/Bias D400/D630 mirror (Ex 347 nm, 1st Em 665 nm, 2nd Em 615 nm).
Exemplary compounds depicted in Table 1 were tested in the IRE1α binding assays.
The term IC50 denotes the concentration that gives 50% inhibition. Higher therefore signals weaker potency. In turn, `Cc1ccc2c(NS(=O)(=O)c3ccccc3Cl)cccc2c1Oc1nnccc1-c1ccnc(N[C@H]2CCCNC2)n1` [Compound 1, (S)-2-chloro-N-(6-methyl-5-((4-(2-(piperidin-3-ylamino)pyrimidin-4-yl)pyridazin-3-yl)oxy)naphthalen-1-yl)benzenesulfonamide] displayed a half-maximal inhibitory concentration (IC50) of 6.1 nM.

The compound `Cc1ccc2c(NS(=O)(=O)CCC(C)(F)F)c(F)ccc2c1Oc1nnccc1-c1ccnc(N[C@@H]2CNC[C@@H](F)C2)n1` [Compound 5, 3,3-difluoro-N-[2-fluoro-6-methyl-5-[4-[2-[[-(3S,5S)-5-fluoro-3-piperidyl]amino]pyrimidin-4-yl]pyridazin-3-yl]oxy-1-naphthyl]butane-1-sulfonamide] returned a half-maximal inhibitory concentration (IC50) of 3.1 nM. Consider `CCCS(=O)(=O)Nc1cccc2c(Oc3nnccc3-c3ccnc(N[C@H]4CCCNC4)n3)c(C)ccc12` [Compound 3, (S)-N-(6-methyl-5-((4-(2-(piperidin-3-ylamino)pyrimidin-4-yl)pyridazin-3-yl)oxy)naphthalen-1-yl)propane-1-sulfonamide], for which the half-maximal inhibitory concentration (IC50) came out at 12 nM. Compound `CCCS(=O)(=O)Nc1c(F)ccc2c(Oc3nnccc3-c3ccnc(N[C@@H]4CNC[C@@H](F)C4)n3)c(C)ccc12` [Compound 6, N-(2-fluoro-5-((4-(2-(((3S,5S)-5-fluoropiperidin-3-yl)amino)pyrimidin-4-yl)pyridazin-3-yl)oxy)-6-methylnaphthalen-1-yl)propane-1-sulfonamide] had an IC50 of 7.1 nM. Same read-out and setting: as for `Cc1ccc2c(NC(=O)C3CC3)cccc2c1Oc1nnccc1-c1ccnc(N[C@H]2CCCNC2)n1` [Compound 2, (S)-N-(6-methyl-5-((4-(2-(piperidin-3-ylamino)pyrimidin-4-yl)pyridazin-3-yl)oxy)naphthalen-1-yl)cyclopropanecarboxamide], the figure is 38 nM; as for `CCCS(=O)(=O)Nc1c(F)ccc2c(Oc3ncncc3-c3ccnc(N[C@@H]4CNC[C@@H](F)C4)n3)c(C)ccc12` [Compound 4, N-(2-fluoro-5-((2-(((3S,5S)-5-fluoropiperidin-3-yl)amino)-[4,5′-bipyrimidin]-4′-yl)oxy)-6-methylnaphthalen-1-yl)propane-1-sulfonamide], 3.3 nM.

The next data set has as its system cells.
Assay: not given
Particulars: high levels; cited from earlier work.
In the case of `Cc1cc(=O)oc2c(C=O)c(O)ccc12` [Compound 4μ8C], the toxicity in cells entry is reported as “no measurable toxicity”.
